Experiments:
HGC27 = experiment: CellTiter-Blue cell-based survival/proliferation assay, HGC27; settings: Homo sapiens, HGC-27; HGC27 stomach tumor cell line, 48 h
Procedure, shortened: (§1)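 Compounds, diluted tenfold serially over 0–10 μM, are applied to 1·10^4 seeded cells per well for 48 h at 37 °C. Resorufin formed during a further 4 h with CellTiter-Blue is detected by fluorescence emission at 590 nm.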

HL60 = experiment: CellTiter-Blue cell-based survival/proliferation assay, HL60; settings: Homo sapiens, HL-60, Leukemia cell line HL60, 48 h, read-out: Anti-tumoral activity (measured IC50) HL60
Procedure, shortened: as §1

U2OS = experiment: CellTiter-Blue cell-based survival/proliferation assay, U2OS; settings: Homo sapiens; U2OS osteosarcoma cell line, 48 h
Description: (§2) Cell-Based Proliferation Screening of Compounds
(§3) CellTiter-Blue cell-based survival/proliferation assay (Promega G8080) was performed on tumor cell lines. A total of 1·10^4 cells/well/50 μl were seeded in a 96-wells plate. Treatment was initiated by addition of a 2× drug solution of 1/10 serial dilutions ranging from 0 to 10 μM. Cells were grown for 48 h at 37° C. and then incubated with 10 μl/well of Promega CellTiter-Bleue reagent for 4 h at 37° C. The amount of resorufin dye formed was quantified by its fluorescence emission at 590 nm using a scanning multiwell spectrophotometer (OPTIMA, BMG labtech, France). A blank well without cells was used as a background control for the spectrophotometer.

A498 = experiment: CellTiter-Blue cell-based survival/proliferation assay, A498; settings: Homo sapiens; A498 kidney tumor cell line, 48 h
Procedure, shortened: as §1

MELWO = experiment: CellTiter-Blue cell-based survival/proliferation assay, MELWO; settings: Homo sapiens; MEL_WO melanoma cell line, 48 h
Description: as §2, §3

A4513 = experiment: CellTiter-Blue cell-based survival/proliferation assay, A4513; settings: Homo sapiens; A4513 Ewing cell line, 48 h
Description: as §2, §3

U118 = experiment: CellTiter-Blue cell-based survival/proliferation assay, U118; settings: Homo sapiens; U118 glioblastoma cell line, 48 h
Description: as §2, §3

SW579 = experiment: CellTiter-Blue cell-based survival/proliferation assay, SW579; settings: Homo sapiens; SW579 head & neck tumor cell line, 48 h
Procedure, shortened: as §1

PANC1 = experiment: CellTiter-Blue cell-based survival/proliferation assay, PANC1; settings: Homo sapiens, PANC-1; PANC_1 pancreas tumor cell line, 48 h
Procedure, shortened: as §1

BXPC3 = experiment: CellTiter-Blue cell-based survival/proliferation assay, BXPC3; settings: Homo sapiens, BXPC-3; BXPC3 pancreas tumor cell line, 48 h
Procedure, shortened: as §1

HUT78 = experiment: CellTiter-Blue cell-based survival/proliferation assay, HUT78; settings: Homo sapiens, Lymphoma cell line HUT78, 48 h, read-out: Anti-tumoral activity (measured IC50) HUT78
Procedure, shortened: as §1

BT20 = experiment: CellTiter-Blue cell-based survival/proliferation assay, BT20; settings: Homo sapiens, BT-20; BT20 breast tumor cell line, 48 h
Procedure, shortened: as §1

H1299 = experiment: CellTiter-Blue cell-based survival/proliferation assay, H1299; settings: Homo sapiens, NCI-H1299; H1299 lung tumor cell line, 48 h
Procedure, shortened: as §1

PC3 = experiment: CellTiter-Blue cell-based survival/proliferation assay, PC3; settings: Homo sapiens, PC-3; PC3 prostate tumor cell line, 48 h
Procedure, shortened: as §1

ACHN = experiment: CellTiter-Blue cell-based survival/proliferation assay, ACHN; settings: Homo sapiens; ACHN kidney tumor cell line, 48 h
Procedure, shortened: as §1

OPM2 = experiment: CellTiter-Blue cell-based survival/proliferation assay, OPM2; settings: Homo sapiens, OPM-2, Myeloma cell line OPM2, 48 h, read-out: Anti-tumoral activity (measured IC50) OPM2
Procedure, shortened: as §1

PLCPRF5 = experiment: CellTiter-Blue cell-based survival/proliferation assay, PLCPRF5; settings: Homo sapiens, PLC-PRF-5; PLC_PRF5 liver tumor cell line, 48 h
Procedure, shortened: as §1

HEPG2 = experiment: CellTiter-Blue cell-based survival/proliferation assay, HEPG2; settings: Homo sapiens; HEPG2 liver tumor cell line, 48 h
Procedure, shortened: as §1

DLD1 = experiment: CellTiter-Blue cell-based survival/proliferation assay, DLD1; settings: Homo sapiens, DLD-1; DLD_1 colorectal tumor cell line, 48 h
Procedure, shortened: as §1

AGS = experiment: CellTiter-Blue cell-based survival/proliferation assay, AGS; settings: Homo sapiens; AGS stomach tumor cell line, 48 h
Procedure, shortened: as §1

HEP2 = experiment: CellTiter-Blue cell-based survival/proliferation assay, HEP2; settings: Homo sapiens, HEp-2; HEP2 head & neck tumor cell line, 48 h
Procedure, shortened: as §1

HCT116 = experiment: CellTiter-Blue cell-based survival/proliferation assay, HCT116; settings: Homo sapiens, HCT-116; HCT116 colorectal tumor cell line, 48 h
Procedure, shortened: as §1

KARPAS299 = experiment: CellTiter-Blue cell-based survival/proliferation assay, KARPAS299; settings: Homo sapiens, KARPAS-299, Lymphoma cell line KARPAS299, 48 h, read-out: Anti-tumoral activity (measured IC50) KARPAS299
Procedure, shortened: as §1

TOV112D = experiment: CellTiter-Blue cell-based survival/proliferation assay, TOV112D; settings: Homo sapiens; TOV112D ovary tumor cell line, 48 h
Procedure, shortened: as §1

REC1 = experiment: CellTiter-Blue cell-based survival/proliferation assay, REC1; settings: Homo sapiens, Lymphoma cell line REC1, 48 h, read-out: Anti-tumoral activity (measured IC50) REC1
Procedure, shortened: as §1

CLS354 = experiment: CellTiter-Blue cell-based survival/proliferation assay, CLS354; settings: Homo sapiens, CLS-354; CLS354_4 head & neck tumor cell line, 48 h
Procedure, shortened: as §1

U87MG = experiment: CellTiter-Blue cell-based survival/proliferation assay, U87MG; settings: Homo sapiens, U-87 MG; U87_MG glioblastoma cell line, 48 h
Description: as §2, §3

A375 = experiment: CellTiter-Blue cell-based survival/proliferation assay, A375; settings: Homo sapiens, A-375; A375 melanoma cell line, 48 h
Description: as §2, §3

MDAMB231 = experiment: CellTiter-Blue cell-based survival/proliferation assay, MDAMB231; settings: Homo sapiens, MDA-MB-231; MDAMB231 breast tumor cell line, 48 h
Procedure, shortened: as §1

DU145 = experiment: CellTiter-Blue cell-based survival/proliferation assay, DU145; settings: Homo sapiens, DU-145; DU145 prostate tumor cell line, 48 h
Procedure, shortened: as §1

MESSA = experiment: CellTiter-Blue cell-based survival/proliferation assay, MESSA; settings: Homo sapiens, MES-SA; MESSA ovary tumor cell line, 48 h
Procedure, shortened: as §1

CALU6 = experiment: CellTiter-Blue cell-based survival/proliferation assay, CALU6; settings: Homo sapiens, Calu-6; CALU6 lung tumor cell line, 48 h
Procedure, shortened: as §1

A549 = experiment: CellTiter-Blue cell-based survival/proliferation assay, A549; settings: Homo sapiens; A549 lung tumor cell line, 48 h
Procedure, shortened: as §1

[1] = tested on: panel of about 34 human tumor cell lines; experiment: Cell-based proliferation screening on panel of tumor cell lines; settings: solid tumor cell line, cell line unknown, 48 h, read-out: IC50, solid tumor cell line of column 6 (last section of Table 3)
Procedure, shortened: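 CellTiter-Blue survival assay with 1·10^4 cells/well, each line treated 48 h at 37° C with 1/10 serial dilutions from 0 to 10 μM. Resorufin formed during a 4 h reagent incubation is read by fluorescence at 590 nm. A cell-free blank serves as background.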

[2] = tested on: human kinases (456 kinases); experiment: KINOMEscan in vitro kinase profiling; format: binding
Description: An in vitro kinase profiling was conducted in order to evidence the absence of protein kinase inhibition by the compounds of the invention.
DiscoveRx (Ambit Biosciences) has developed a high-throughput system (KINOMEscan™) for screening of compounds against large numbers of human kinases (456 kinases).
The compounds of the invention were screened at the concentration of 1 μM, and results for primary screen binding interactions were reported as percent control (% Ctrl), where lower numbers indicate stronger hits. DMSO is used as a negative control (100% Ctrl) while a high affinity compound is used as a positive control (0% Ctrl). % Ctrl is calculated as follow:
[formula] Selectivity Score or S-score is a quantitative measure of compound selectivity. It is calculated by dividing the number of kinases that compounds bind to by the total number of distinct kinases tested, excluding mutant variants. S(10)=(number of kinases with % Ctrl<10)/(number of kinases tested), S(1)=(number of kinases with % Ctrl<1)/(number of kinases tested).

Compound	IC50 (HGC27) [µM]	IC50 (HL60) [µM]	IC50 (A498) [µM]	IC50 (SW579) [µM]	IC50 (PANC1) [µM]	IC50 (BXPC3) [µM]	IC50 (BT20) [µM]	IC50 (H1299) [µM]	IC50 (PC3) [µM]	IC50 (ACHN) [µM]	IC50 (OPM2) [µM]	IC50 (PLCPRF5) [µM]	IC50 (HEPG2) [µM]	IC50 (DLD1) [µM]	IC50 (AGS) [µM]	IC50 (HEP2) [µM]	IC50 (HCT116) [µM]	IC50 (TOV112D) [µM]	IC50 (CLS354) [µM]	IC50 (MDAMB231) [µM]	other results
CCOCc1ccc(C)c(Nc2nnc(-c3ccc(N4CCNC4=O)cc3)o2)c1 [Example 008, 1-{4-[5-(5-Ethoxymethyl-(2-methyl-phenylamino))-[1,3,4]oxadiazol-2-yl]-phenyl}-imidazolidin-2-one]	0.5 to 1	≤ 0.1	> 1	0.5 to 1	> 1	> 1	> 1	> 1	≤ 0.1	≤ 0.1	≤ 0.1	> 1	> 1	> 1	> 1	≤ 0.1	≤ 0.1	≤ 0.1	0.1 to 0.5	> 1	IC50 (U2OS): > 1 µM; IC50 (MELWO): 0.5 to 1 µM; IC50 (A4513): > 1 µM; IC50 (U118): > 1 µM; IC50 (HUT78): ≤ 0.1 µM; IC50 (KARPAS299): ≤ 0.1 µM; IC50 (REC1): ≤ 0.1 µM; IC50 (U87MG): > 1 µM; IC50 (A375): ≤ 0.1 µM; IC50 (DU145): > 1 µM; IC50 (MESSA): > 1 µM; IC50 (CALU6): > 1 µM
CCOCc1ccc(C)c(Nc2nnc(-c3ccc(-n4cccn4)cc3)o2)c1 [Example 009, (5-Ethoxymethyl-2-methyl-phenyl)-[5-(4-pyrazol-1-yl-phenyl)-[1,3,4]oxadiazol-2-yl]-amine]	> 1	> 1	> 1	> 1	> 1	> 1	> 1	> 1	> 1	> 1	> 1	> 1	> 1	> 1	> 1	> 1	> 1	> 1	> 1	> 1	IC50 (U2OS): > 1 µM; IC50 (MELWO): > 1 µM; IC50 (A4513): > 1 µM; IC50 (U118): > 1 µM; IC50 (A549): > 1 µM; IC50 (U87MG): > 1 µM; IC50 (A375): > 1 µM; IC50 (DU145): > 1 µM; IC50 (MESSA): > 1 µM; IC50 (CALU6): > 1 µM
CCOCc1ccc(C)c(Nc2ncc(-c3ccc(-n4cccn4)cc3)o2)c1 [Example 033, (5-Ethoxymethyl-2-methyl-phenyl)-[5-(4-pyrazol-1-yl-phenyl)-oxazol-2-yl]-amine]	≤ 0.1	≤ 0.1	0.1 to 0.5	> 1	> 1	0.1 to 0.5	0.1 to 0.5	> 1	≤ 0.1	≤ 0.1	≤ 0.1	0.5 to 1	0.5 to 1	≤ 0.1	≤ 0.1	≤ 0.1	0.1 to 0.5	≤ 0.1	≤ 0.1	> 1	IC50 (A549): > 1 µM; IC50 (HUT78): ≤ 0.1 µM; IC50 [1]: ≤ 0.1 µM; Interaction with the 456 kinases tested ([2]; screened at 1 μM): do not efficiently interact; Number of hits/number of kinases, S1 ([2]; tested at 1 μM, S(1): kinases with % Ctrl<1): 0/456; S-score, S1 ([2]; tested at 1 μM, S(1)=(number of kinases with % Ctrl<1)/(number of kinases tested)): 0.000; Number of hits/number of kinases, S10 ([2]; tested at 1 μM, S(10): kinases with % Ctrl<10): 1/456; S-score, S10 ([2]; tested at 1 μM, S(10)=(number of kinases with % Ctrl<10)/(number of kinases tested)): 0.002; Kinase targets, S10 ([2]; tested at 1 μM, kinases with % Ctrl<10): CDKL3; IC50 (KARPAS299): ≤ 0.1 µM; IC50 (REC1): ≤ 0.1 µM; IC50 (DU145): > 1 µM; IC50 (MESSA): 0.1 to 0.5 µM; IC50 (CALU6): ≤ 0.1 µM
CCOCc1ccc(C)c(Nc2ncc(-c3ccc(-c4ccc[nH]c4=O)cc3)o2)c1 [Example 050, 3-{4-[2-(5-Ethoxymethyl-(2-methyl-phenylamino))-oxazol-5-yl]-phenyl}-1H-pyridin-2-one]	> 1	0.5 to 1	> 1	> 1	> 1	> 1	> 1	> 1	> 1	> 1	0.5 to 1	> 1	> 1	> 1	> 1	> 1	> 1	> 1	> 1	> 1	IC50 (A549): > 1 µM; IC50 (HUT78): > 1 µM; IC50 [1]: 0.5 to 1 µM; IC50 (KARPAS299): 0.1 to 0.5 µM; IC50 (REC1): 0.5 to 1 µM; IC50 (DU145): > 1 µM; IC50 (MESSA): > 1 µM; IC50 (CALU6): > 1 µM

Source: US10570122B2, “Compounds with anti-tumoral activity” (AB Science, priority 2015, dated 2020)
